In the experiment the test system is Herpes Simplex Virus (HSV-2). The format is cell-based. The procedure:
BHK-21/C13 cells (ATCC CCL 10) are incubated for two days in 150 cm^2 T-flasks (1.5 x 10^6 cells/flask) with alpha-MEM medium (Gibco Canada Inc., Burlington, Ontario, Canada) supplemented with 8% (v/v) fetal bovine serum (FBS, Gibco Canada Inc.). The cells are trypsinized and then transferred to fresh media in a 24 well plate to give 2.5 x 10^5 cells in 750 µL of media per well. The cells are incubated at 37° for a period of 6 h to allow them to adhere to the plate. Thereafter, the cells are washed once with 500 µL of alpha-MEM supplemented with 0.5% (v/v) FBS and then incubated with 750 µL of the same media (low serum) for 3 days. After this period of serum starvation, the low serum medium is removed and the cells are incubated in 500 µL of BBMT for 2 to 3 hours. {BBMT medium is described by P. Brazeau et al., Proc. Natl. Acad. Sci. USA, 79, 7909 (1982).} Thereafter, the cells are infected with HSV-2 (multiplicity of infection = 0.02 PFU/cell) in 100 µL of BBMT medium. (Note: The HSV-2 used was strain HG-52, see Y. Langelier and G. Buttin, J. Gen. Virol., 57, 21 (1981); the virus was stored at -80°.) Following 1 h of virus adsorption at 37°, the media is removed and the cells are washed with BBMT (3 X 250 µL). The cells in each well are incubated with or without (control) appropriate concentrations of the test agent dissolved in 200 µL of BBMT medium. After 29 h of incubation at 37°, the infected cells are harvested by first freezing the plate at -80°, followed by thawing. The cells in each well are scraped off the surface of the well with the help of the melting ice fragments. After complete thawing, the cell suspensions are collected and each well is rinsed with 150 µL of BBMT medium. The viral sample (suspension plus washing) is sonicated gently for 4 min at 4°. Cell debris are removed by centrifugation (1000 times gravity for 10 minutes at 4°). The supernatant is collected and stored at -80° until determination of viral titer.
Viral titration was performed by a modification of the colorimetric assay method of M. Langlois et al., Journal of Biological Standardization, 14, 201 (1986).
More specifically, in a similar manner as described above, BHK-21/C13 cells are trypsinized and transferred to fresh media in a 96 well microtiter plate to give 20,000 cells in 100 µL of media per well. The cells in the prepared plate are incubated at 37° for, 2 h. During that time, the viral sample is thawed and sonicated gently for 15 seconds, and log dilutions of the sample are prepared (1/5 sequential: 50 µL of the sample plus 200 µL of BBMT medium, sequential dilutions being done with a multichannel pipette.
On completion of the above 2 hour incubation of the BHK-21/C13 cells, the media is replaced with alpha-MEM medium supplemented with 3% (v/v) FBS. The cells are now ready to be infected with the various sample dilutions of virus. Aliquots (50 µL) of the various dilutions are transferred into the appropriate wells of the plate. The resulting infected cells are incubated for 2 days at 37°. Then 50 µL of a 0.15% (v/v) solution of neutral red dye in Hank's Balanced Salt Solution (pH 7.3, Gibco Canada Inc.) is added to each well. The prepared plate is incubated for 45 min at 37°. Medium from each well is then aspirated and the cells are washed once with 200 µL of Hank's Balanced Salt Solution. After the wash, the dye is released from the cells by the addition of 100 µL of a 1:1 mixture of 0.1 M Sorensen's citrate buffer (pH 4.2) and ethanol. {Sorensen's citrate buffer is prepared as follows: Firstly, a 0.1 M disodium citrate solution is prepared by dissolving citric acid monohydrate (21 g) in 1 N aqueous NaOH (200 mL) and adding sufficient filtered H2O to make 1 L. Secondly, the 0.1 M disodium citrate solution (61.2 mL) is mixed with 0.1 N aqueous HCl (38.8 mL) and the pH of the resulting solution is adjusted to 4.2 if necessary.} The mixture in the wells is subjected to a gentle vortex action to ensure proper mixing.

From EP0560274B1, “Antiherpes peptide derivatives having a ureido N-terminus” (priority 1992, dated 1993) come the findings set out here.

Read-outs that look alike come from different tables or passages of the source. *1 amine or outer side, *2 acyl side, *3 side chain or, on linkers, in order; H or OH if unused. Where a SMILES comes first, the peptide text is derived from it. [ ]: non-standard residue; d: D form. The star is where a group is joined. Gly(1-adamantyl) = N[C@H](C(=O)O)C12CC3CC(CC(C3)C1)C2; Asp(3,3-(CH2)4) = N[C@H](C(=O)O)C1(C(=O)O)CCCC1; tBuAla = CC(C)(C)C[C@H](N)C(=O)O; Tle = CC(C)(C)[C@H](N)C(=O)O; NH(3-pentyl) = CCC(CC)N*; Pyrrolidide = C1CCN(*)C1; X2 = CC(C)(C)CC(C)(C)N*; CO = O=C([*:1])[*:2]; X1 = CCCC1(N*)CCCC1; X4 = CCCC(CCC)N*

By EC50 is commonly meant the concentration at which the effect is half-maximal. For the molecule `CCCC1(NC(=O)N[C@H](C(=O)N[C@@H](CC(=O)N2CCCC2)C(=O)N[C@H](C(=O)N[C@@H](CC(C)(C)C)C(=O)OCC)C2(C(=O)O)CCCC2)C(C)(C)C)CCCC1` [(1-propylcyclopentyl)-NHC(O)-Tbg-Asp(pyrrolidino)-Asp(cyPn)-γMeLeu-OEt] ({X1-CO}-[Tle]D(Pyrrolidide)[Asp(3,3-(CH2)4)][tBuAla]-OEt), for the setting “29 h”, a half-maximal response (EC50) required 45 µM.
`CCCC1(NC(=O)N[C@H](C(=O)N[C@@H](CC(=O)N2CCCC2)C(=O)N[C@H](C(=O)N[C@@H](CC(C)(C)C)C(=O)O)C2(C(=O)O)CCCC2)C(C)(C)C)CCCC1` [(1-propylcyclopentyl)NHCO-Tbg-Asp-(pyrrolidino)-Asp(cyPn)-γMeLeu-OH] ({X1-CO}-[Tle]D(Pyrrolidide)[Asp(3,3-(CH2)4)][tBuAla]-OH): under “29 h”, a half-maximal response (EC50) required 190 µM.
`CCC(CC)NC(=O)N[C@H](C(=O)N[C@@H](CC(=O)N1CCCC1)C(=O)N[C@H](C(=O)N[C@@H](CC(C)(C)C)C(=O)O)C1(C(=O)O)CCCC1)C12CC3CC(CC(C3)C1)C2` [Et2CHNHC(O)-NH-(S)-CH(adamantyl)-C(O)-Asp(pyrrolidino)-Asp(cyPn)-γMeLeu-OH] ({NH(3-pentyl)-CO}-[Gly(1-adamantyl)]D(Pyrrolidide)[Asp(3,3-(CH2)4)][tBuAla]-OH): where the note is “29 h”, the EC50 is 170 µM.
Still for that read-out and setting: the same measure for `CCC(CC)NC(=O)N[C@H](C(=O)N[C@@H](CC(=O)N1CCCC1)C(=O)N[C@H](C(=O)N[C@H](CO)CC(C)(C)C)C1(C(=O)O)CCCC1)C12CC3CC(CC(C3)C1)C2` [Et2CHNHC(O)-NH-(S)-CH(adamantyl)-C(O)-Asp(pyrrolidino)-Asp(cyPn)-γMeLeucinol]: 170 µM; for `CCC(CC)NC(=O)N[C@H](C(=O)N[C@@H](CC(=O)N1CCCC1)C(=O)N[C@H](C(=O)NCCC(C)(C)C)C1(C(=O)O)CCCC1)C(C)(C)C` [Et2CHNHC(O)-Tbg-Asp(pyrrolidino)-Asp(cyPn)-NHCH2CH2CMe3]: 350 µM; for `CCC(CC)NC(=O)N[C@H](C(=O)N[C@@H](CC(=O)N1CCCC1)C(=O)N[C@H](C(=O)NCC(C)(C)C)C1(C(=O)O)CCCC1)C(C)(C)C` [Et2CHNHC(O)-Tbg-Asp(pyrrolidino)-Asp(cyPn)-NHCH2CMe3]: 270 µM.
The molecule `CCC(CC)NC(=O)N[C@H](C(=O)N[C@@H](CC(=O)N1CCCC1)C(=O)N[C@H](C(=O)N[C@@H](CC(C)(C)C)C(=O)O)C1(C(=O)O)CCCC1)C(C)(C)C` [Et2CHNHC(O)-Tbg-Asp(pyrrolidino)-Asp(cyPn)-γMeLeu-OH] ({NH(3-pentyl)-CO}-[Tle]D(Pyrrolidide)[Asp(3,3-(CH2)4)][tBuAla]-OH) yielded an EC50 (29 h) of 180 µM.
`CCC(CC)NC(=O)N[C@H](C(=O)N[C@@H](CC(=O)N1CCCC1)C(=O)N[C@H](C(=O)N[C@@H](CC(C)C)C(=O)O)[C@H](C(=O)O)C(C)C)C(C)(C)C` [Et2CHNHC(O)-Tbg-Asp(pyrrolidino)-Asp{(R)-iPr}-Leu-OH] gave an EC50 (29 h) of 300 µM.
Molecule `CCC(CC)NC(=O)N[C@H](C(=O)N[C@@H](CC(=O)N1CCCC1)C(=O)N[C@H](C(=O)N[C@@H](CC(C)(C)C)C(=O)O)[C@H](C(=O)O)C(C)C)C(C)(C)C` [Et2CHNHC(O)-Tbg-Asp(pyrrolidino)-Asp{(R)-iPr}-γMeLeu-OH] displayed an EC50 (29 h) of 190 µM.
Molecule `CCC(CC)NC(=O)N[C@H](C(=O)N[C@@H](CC(=O)N1CCCC1)C(=O)N[C@H](C(=O)N[C@H](CO)CC(C)(C)C)[C@H](C(=O)O)C(C)C)C(C)(C)C` [Et2CHNHC(O)-Tbg-Asp(pyrrolidino)-Asp{(R)-iPr}-γMeLeucinol] had a concentration giving a half-maximal response (EC50) (29 h) of 140 µM.
Regarding `CCC(CC)NC(=O)N[C@H](C(=O)N[C@@H](CC(=O)N1CCCC1)C(=O)N[C@H](C(=O)N[C@H](CO)CC(C)(C)C)C1(C(=O)O)CCCC1)C(C)(C)C` [Et2CHNHCO-Tbg-Asp(pyrrolidino)-Asp(cyPn)-γMeLeucinol], a half-maximal effect (29 h) (EC50) was put at 170 µM.
`CCCC(CC)(CCC)NC(=O)N[C@H](C(=O)N[C@@H](CC(=O)N1CCCC1)C(=O)N[C@H](C(=O)N[C@H](CC)C(C)(C)C)C1(C(=O)O)CCCC1)C(C)(C)C` [EtPr2CNHC(O)-Tbg-Asp(pyrrolidino)-Asp(cyPn)NH-(R)-CH(Et)CMe3] returned a concentration giving a half-maximal response (EC50) (29 h) of 7 µM.
Same read-out and setting: the same measure for `CC(C)NC(=O)N[C@H](C(=O)N[C@@H](CC(=O)N1CCCC1)C(=O)N[C@H](C(=O)N[C@H](CO)CC(C)(C)C)C1(C(=O)O)CCCC1)C(C)(C)C` [Me2CHNHC(O)-Tbg-Asp(pyrrolidino)-Asp(cyPn)-γMeLeucinol]: 700 µM.
As for `CC(C)(C)C[C@H](NC(=O)[C@@H](NC(=O)[C@H](CC(=O)N1CCCC1)NC(=O)[C@@H](NC(=O)NC(C)(C)CC(C)(C)C)C(C)(C)C)C1(C(=O)O)CCCC1)C(=O)O` [Me3CCH2CMe2NHC(O)-Tbg-Asp(pyrrolidino)-Asp(cyPn)-γMeLeu-OH] ({X2-CO}-[Tle]D(Pyrrolidide)[Asp(3,3-(CH2)4)][tBuAla]-OH), the EC50 (concentration effecting 50% inhibition of virus replication, BHK-21/C13 cells infected with HSV-2 strain HG-52 (0.02 PFU/cell), 29 h incubation, colorimetric (neutral red) viral titration, read-out: EC50) came to 110 µM.
The molecule `CCCC(C)(CCC)NC(=O)N[C@H](C(=O)N[C@@H](CC(=O)N1CCCC1)C(=O)N[C@H](C(=O)NCC(C)(C)C)C1(C(=O)O)CCCC1)C(C)(C)C` [MePr2CNHC(O)-Tbg-Asp(pyrrolidino)-Asp(cyPn)-NHCH2CMe3] displayed a concentration for a half-maximal effect (EC50) (29 h) of 84 µM.
Still for that read-out and setting: the same measure for `CCCC(CCC)NC(=O)N[C@H](C(=O)N[C@@H](CC(=O)N1CCCC1)C(=O)N[C@H](C(=O)N[C@H](CO)CC(C)(C)C)C1(C(=O)O)CCCC1)C(C)(C)C(=O)O` [Pr2CHNHC(O)-Asp(diMe)-Asp(pyrrolidino)-Asp(cyPn)-γMeLeucinol]: 170 µM; for `CCCC(CCC)NC(=O)N[C@H](C(=O)N[C@@H](CC(=O)N1CCCC1)C(=O)N[C@H](C(=O)N[C@H](CO)CC(C)(C)C)C1(C(=O)O)CCCC1)C(C)(C)S` [Pr2CHNHC(O)-NH-(R)-CH{C(CH3)2SH}CO-Asp(pyrrolidino)-Asp(cyPn)-γMeLeucinol]: 290 µM; for `CCCC(CCC)NC(=O)N[C@H](C(=O)N[C@@H](CC(=O)N1CCCC1)C(=O)N[C@H](C(=O)N[C@H](CO)CC(C)(C)C)C1(C(=O)O)CCCC1)C(C)(C)O` [Pr2CHNHC(O)-NH-(S)-CH{C(CH3)2OH}-C(O)-Asp(pyrrolidino)-Asp(cyPn) γMeLeucinol]: 210 µM.
`CCCC(CCC)NC(=O)N[C@H](C(=O)N[C@@H](CC(=O)N1CCCC1)C(=O)N[C@H](C(=O)NCC(C)(C)CC)C1(C(=O)O)CCCC1)C(C)(C)C` [Pr2CHNHC(O)-Tbg-Asp(pyrrolidino)-Asp(cyPn)-NHCH2CMe2Et]: where the note is “29 h”, a half-maximal effect (EC50) was put at 106 µM.
On to `CCCC(CCC)NC(=O)N[C@H](C(=O)N[C@@H](CC(=O)N1CCCC1)C(=O)N[C@H](C(=O)NCC(C)(C)C)C1(C(=O)O)CCCC1)C(C)(C)C` [Pr2CHNHC(O)-Tbg-Asp(pyrrolidino)-Asp(cyPn)-NHCH2CMe3], for which the EC50 (29 h) was 150 µM.
`CCCC(CCC)NC(=O)N[C@H](C(=O)N[C@@H](CC(=O)N1CCCC1)C(=O)N[C@H](C(=O)N[C@H](C)C(C)(C)C)C1(C(=O)O)CCCC1)C(C)(C)C` [Pr2CHNHC(O)-Tbg-Asp(pyrrolidino)-Asp(cyPn)-NHCH-(R)-CH(Me)CMe3] gave a concentration giving a half-maximal response (EC50) (29 h) of 55 µM.
In the case of `CCCC(CCC)NC(=O)N[C@H](C(=O)N[C@@H](CC(=O)N1CCCC1)C(=O)N[C@H](C(=O)N[C@@H](CC(C)(C)C)C(=O)O)C1(C(=O)O)CCCC1)C(C)(C)C` [Pr2CHNHC(O)-Tbg-Asp(pyrrolidino)-Asp(cyPn)-γMeLeu-OH] ({X4-CO}-[Tle]D(Pyrrolidide)[Asp(3,3-(CH2)4)][tBuAla]-OH), for the setting “29 h”, the half-maximal effective concentration (EC50) was found to be 80 µM.
